# Source: patent publication US6468976B1 (AstraZeneca AB, priority 2001, dated 2002)
# What was measured:
# crystal size by SEM = type: physicochemical
# Description: In contrast, the crystals of monohydrate form 2 are much smaller, and in a narrower size range, than those of monohydrate form 1, typically 5 μm or less in edge length.
# [1] = stability / hygroscopicity on standing at ambient conditions; type: physicochemical; conditions: for hygroscopicity / stability at room temperature and humidity: standard room temperature and humidity; for stability under ambient conditions: thermogravimetric analysis after 5 hours standing at ambient conditions
# Method: The partially dehydrated material was allowed to stand for about 5 hours.
# [2] = cited from earlier work
SMILES,hygroscopicity / stability at room temperature and humidity [1],stability under ambient conditions [1],other results
"NCCCC[C@H](N[C@@H](CCc1ccccc1)C(=O)O)C(=O)N1CCC[C@H]1C(=O)O [monohydrate lisinopril form 2, 1-(N^2-[(S)-1-carboxy-3-phenylpropyl]-L-lysyl)-L-proline]",,,crystal size (length / edge length) (crystal size by SEM; listed as monohydrate form 2): ≤ 5 μm
"NCCCC[C@H](N[C@@H](CCc1ccccc1)C(=O)O)C(=O)N1CCC[C@H]1C(=O)O [monohydrate lisinopril form 1, 1-(N^2-[(S)-1-carboxy-3-phenylpropyl]-L-lysyl)-L-proline]",stable at a standard room temperature and humidity,stable under ambient conditions,crystal size (length / edge length) (crystal size by SEM; listed as monohydrate form 1): 50 to 500 μm
NCCCC[C@H](N[C@@H](CCc1ccccc1)C(=O)O)C(=O)N1CCC[C@H]1C(=O)O.O [Preparation 3],strongly hygroscopic,regained the lost weight and to have become a dihydrate,
"NCCCC[C@H](N[C@@H](CCc1ccccc1)C(=O)O)C(=O)N1CCC[C@H]1C(=O)O [lisinopril, 1-(N^2-[(S)-1-carboxy-3-phenylpropyl]-L-lysyl)-L-proline]",,,time to peak serum concentrations ([2]; following oral administration): ≤ 7 h; effective half-life of accumulation ([2]; on multiple dosing): about 12.6 hours
